Measurements as given in patent US12503448B2, “Antibacterial and antiparasitic quinoxaline-2,3-diamine derivatives” (University College Cardiff Consultants Limited, priority 2019, dated 2025).
≈ marks a conversion by molar mass, not a printed value. Where two headings read alike, the source gives them in different places.

How the values were obtained:
MRSA ATCC 33591 = test: In vitro antibacterial activity; type: cell-based; details: Staphylococcus aureus
S. epidermidis NTCT11077 = test: In vitro antibacterial activity; type: cell-based; details: Staphylococcus epidermidis, NTCT11077
MRSA USA 300 = test: In vitro antibacterial activity; type: cell-based; details: Staphylococcus aureus
B. cereus = test: In vitro antibacterial activity; type: cell-based; details: Bacillus cereus; B. cereus; read-out: MIC90
[1] = test system: F. hepatica newly excysted juveniles (NEJs); test: Newly excysted juveniles (NEJs) drug screen; type: cell-based, Fasciola hepatica; set-up: scale not given here; details: 10 μM, 72 h; higher score indicates lower worm activity
Experimental: Newly Excysted Juveniles (NEJs) Drug Screen
F. hepatica (Italian strain) metacercariae were obtained from Ridgeway Research, Gloucestershire, UK and stored at 4° C. Newly excysted juveniles (NEJs) from metacercariae were produced based on an optimisation introduced to the excystment method published by Dixon et al. and Wilson et al (Dixon, K. E., The physiology of excystment of the metacercaria of Fasciola hepática L. Parasitology, 1966, 56, 431-456.; Wilson, L. R., Good, R. T., Panaccio, M., Wijffels, G. L., Sandeman, R. M., Spithill, T. W, Fasciola hepatica: Characterization and Cloning of the Major Cathepsin B Protease Secreted by Newly Excysted Juvenile Liver Fluke. Experimental Parasitology 1998, 88, 85-94).
After excystment, NEJs were distributed into a 24 well tissue culture plate at a density of 25 parasites per well containing 1 mL of pre-warmed NEJs culture media. Compounds were added to respective wells and NEJ/compound co-cultures were incubated at 37° C. in an atmosphere containing 5% CO2 for 72 hours at a final concentration of 10 μM.
F. hepatica NEJs (25 per well) were incubated with the three compounds at a concentration of 10 μM (in 0.1% DMSO) and cultured for 72 hrs at 37° C. in an atmosphere containing 5% CO2. Control wells (25 NEJs per well) included those containing 0.1% DMSO (solvent) and RMPI (media) as negative controls or 10 μM Triclabendazole (0.1% DMSO, as positive control, labelled “Tbz” (Comp. 3). After 72 hrs, all NEJs were scored for phenotype and motility metrics. For each treatment, an average of both phenotype and motility score was calculated based on the individual parasite scores (across two independent replicates), wherein a higher score indicates lower worm activity. SD is reported on the bar chart.

S. aureus ATCC 29213 = test: In vitro antibacterial activity; type: cell-based; details: Staphylococcus aureus, ATCC29213
[2] = test system: Pseudomonas aeruginosa ATCC 27853; test: In vitro antibacterial activity; type: cell-based; details: Pseudomonas aeruginosa, ATCC27853
S. mansoni schistosomula = test: 72 hours schistosomula drug screen; type: cell-based, Schistosoma mansoni; details: for Selectivity Index Schistosomula: HepG2 CC50 over schistosomula EC50; for EC50: Schistosoma mansoni
Experimental: Biological Screening 72 Hours Schistosomula Drug Screen […] G. Colley, […], Schistosoma mansoni: simplified method for the production of schistosomules., Exp. Parasitol. 35 (1974) 44-51. Newly transformed schistosomula were prepared for 72 hour high throughput screening (HTS) in 384-well black-sided microtiter plates (Perkin Elmer, MA, USA) as described in M. Nur-e-alam, M. Yousaf, […]. Bari, H. A. Ghabbour, […]. Ho, A. J. […], Neoclerodane Diterpenoids from […], Teucrium […]. Nat. […] The data obtained in this manner is shown in Table 1 in the columns labelled “Phenotype”, “Motility” and “Schistosomula average”.

MRSA EM RSA = test: In vitro antibacterial activity; type: cell-based; details: Staphylococcus aureus
Description: (§1) In vitro Determination of Antibacterial Activity
(§2) Scientific Reports 8 (1), 2018. Bacterial strains of Enterococcus faecalis—ATCC 29212, NCTC 12201, ATCC 51299; Streptococcus pneumoniae—ATCC 49619, 18778, 21394, 21395; Haemophilus influenza—ATCC 49766, 18391, 17428; Staphylococcus aureus—NCTC 12493, ATCC BAA-077, ATCC 700698, 11051; used for testing the compounds, as previously described in “Clinical laboratory testing and in vitro diagnostics test systems—Susceptibility testing of infectious agents and evaluation of performance of antimicrobial susceptibility devices—Part 1: Reference methods for testing the in vitro activity of antimicrobial agentes against bacteria involved in infectious diseases, ISO/FDIS 20776-1:2006(E). All the procedures were carried out in a biosafety containment level 2.

E. coli ATCC 25922 = test: In vitro antibacterial activity; type: cell-based; details: Escherichia coli, ATCC25922
[3] = test system: M. smegmatis mc^2 15 ATCC 700084; test: In vitro antibacterial activity; type: cell-based, Mycobacterium smegmatis; details: Mycolicibacterium smegmatis, ATCC700084
[4] = test system: Staphylococcus aureus 11051; test: Antibacterial MIC (ISO 20776-1); type: cell-based; details: Staphylococcus aureus, 11051
Description: as §1, §2

[5] = test system: Haemophilus influenzae 17428; test: Antibacterial MIC (ISO 20776-1); type: cell-based; details: Haemophilus influenzae 17428, Ampicillin resistance, PBP
Description: as §1, §2

[6] = test system: Streptococcus pneumoniae ATCC 49619; test: Antibacterial MIC (ISO 20776-1); type: cell-based; details: Streptococcus pneumoniae, ATCC49619
Description: as §1, §2

[7] = test system: Enterococcus faecalis NCTC 12201; test: Antibacterial MIC (ISO 20776-1); type: cell-based; details: NCTC12201; Enterococcus faecalis NCTC 12201, Vancomycin resistance, vanA
Description: as §1, §2

[8] = test system: Staphylococcus aureus ATCC BAA-977; test: Antibacterial MIC (ISO 20776-1); type: cell-based; details: Staphylococcus aureus, ATCCBAA977
Description: as §1, §2

[9] = test system: Staphylococcus aureus ATCC 700698; test: Antibacterial MIC (ISO 20776-1); type: cell-based; details: ATCC700698; Staphylococcus aureus ATCC 700698, Vancomycin resistance, hVISA; read-out: MIC
Description: as §1, §2

[10] = test system: Enterococcus faecalis ATCC 29212; test: Antibacterial MIC (ISO 20776-1); type: cell-based; details: Enterococcus faecalis, ATCC29212
Description: as §1, §2

[11] = test system: Staphylococcus aureus NCTC 12493; test: Antibacterial MIC (ISO 20776-1); type: cell-based; details: Staphylococcus aureus, NCTC12493
Description: as §1, §2

[12] = test system: Streptococcus pneumoniae 21394; test: Antibacterial MIC (ISO 20776-1); type: cell-based; details: Streptococcus pneumoniae, 21394
Description: as §1, §2

[13] = test system: Enterococcus faecalis ATCC 51299; test: Antibacterial MIC (ISO 20776-1); type: cell-based; details: ATCC51299; Enterococcus faecalis ATCC 51299, Vancomycin resistance, vanB
Description: as §1, §2

[14] = test system: Haemophilus influenzae ATCC 49766; test: Antibacterial MIC (ISO 20776-1); type: cell-based; details: ATCC49766
Description: as §1, §2

[15] = test system: Streptococcus pneumoniae 18778; test: Antibacterial MIC (ISO 20776-1); type: cell-based; details: Streptococcus pneumoniae, 18778
Description: as §1, §2

[16] = test system: Streptococcus pneumoniae 21395; test: Antibacterial MIC (ISO 20776-1); type: cell-based; details: Streptococcus pneumoniae, 21395
Description: as §1, §2

[17] = test system: Haemophilus influenzae 18391; test: Antibacterial MIC (ISO 20776-1); type: cell-based; details: Haemophilus influenzae 18391, AMP/COA resistance, PBP/β-lactamase
Description: as §1, §2

H3K4 methylation = test: Histone extraction and detection of global H3K4 methylation in treated adult worms; type: cell-based, Schistosoma mansoni; details: sub-lethal concentration 0.0024 μM, male and female adult worms
S. mansoni adult worms = test: Adult worm drug screen (WHO scoring, WormassayGP2); type: cell-based, Schistosoma mansoni
Description: Mice (MF-1 mice, Harlan, UK), infected 7 weeks previously with 180 cercaria, were euthanised with an intraperitoneal injection of phenobarbital/heparin solution. Adult worms were recovered by perfusion of the portal system and subjected to drug screening as previously described in Padalino G, Ferla S, Brancale A, Chalmers I W, Hoffmann K F. Int J Parasitol Drugs Drug Resist. 2018 December; 8(3):559-570; in Whiteland H L, Chakroborty A, Forde-Thomas J E, Crusco A, Cookson A, Hollinshead J, Fenn C A, Bartholomew B, Holdsworth P A, Fisher M, Nash R J, Hoffmann K F. Int J Parasitol Drugs Drug Resist. 2018 December; 8(3):465-474; and in Crusco A, Bordoni C, Chakroborty A, Whatley K C L, Whiteland H, Westwell A D, Hoffmann K F. Eur J Med Chem. 2018 May 25; 152:87-100. The data obtained in this manner is shown in Table 1 in the columns labelled “Adult worm”.
Regarding the quantification of drug treatment on adult worms (e.g. decreased activity, paralysis or sluggishness), two different approaches were used, as described below. Where egg deposition was noticed, eggs were removed and counted using a Sedgewick rafter slide.
Adult worms were scored using the standardized microscopic WHO-TDR scoring system previously described by Ramirez, B., Bickle, Q., Yousif, F., Fakorede, F., Mouries, M.-A., Nwaka, S. in Schistosomes: Challenges in compound screening, Expert Opin Drug Discov. 2007 October; 2(s1): S53-61. This scoring system (0-4) identifies changes in worm movement and is defined according to the following scoring matrix: 0=no movement, 1=no movement with visible gut peristalsis, 2=minimal movement (occasional movement from anterior or posterior end of the worm), 3=slow continuous movement and 4=normal movement.
A digital image processing-based system was also used to assess parasite motility after drug treatment and is a modification of methods previously described by Marcellino C., Gut, J., Lim, K., Singh R., McKerrow, L. and Sakanari, J. WormAssay: a novel computer application for whole-plate motion-based screening of macroscopic parasites. PLoS Negl Trop Dis. 2012 January:6(1):e1494. This allowed for objective verification of the WHO method described above. The data obtained with this quantification method is shown in Table 1 in the columns labelled “Adult worm”.

MTT assay on HepG2 cells = type: cell-based; details: human
Experimental: MTT Assay on HepG2 Cells Human Hepatocyte Carcinoma (HepG2) cells (85011430, Sigma Aldrich) were used to assess the overt toxicity of these anti-infective compounds. […] A negative control (1% v/v Triton X-100; X100, Sigma-Aldrich) was also included in each screen. After addition of compounds, each plate was then incubated for a further 20 hrs before application of MTT reagent (prepared as described in Nur-[…], Bari A, Ghabbour […], Hoffmann […] Nat Prod. 2017 Jun. 23; 80(6):1900-1908 for the assessment of compound cytotoxicity using the MTT assay. […] The plate was then further incubated for 4 hrs. After incubation, each plate was blotted dry under the laminar flow to remove the MTT treated culture media. A 100 μl DMSO: isopropanol (1:1) solution was then added to each well and the plate was then subsequently incubated for 10 minutes at 37° C. Following incubation, each plate was shaken again and then absorbance measured at 570 nm. The absorbance reading was corrected based on the average value of the wells used as blank (no cells). […] The data obtained in this manner is shown in Table 1 in the columns labelled “HepG2”. […] The selectivity indexes for schistosomula and adult worms are shown in the final two columns in Table 1.

[18] = schistosomula, 72 hour culture, read-out: EC50 Motility
[19] = schistosomula, 72 hour culture, read-out: EC50 Phenotype

O=C(Nc1ccc2nc(Nc3ccc(Cl)c(Cl)c3)c(Nc3ccc(Cl)c(Cl)c3)nc2c1)c1ccco1 [Compound 19, N-(2,3-bis((3,4-dichlorophenyl)amino)quinoxalin-6-yl)furan-2-carboxamide]
MIC90 (MRSA ATCC 33591): 15.6 µg/mL (≈ 27.9 µM)
MIC90 (S. epidermidis NTCT11077): 125 µg/mL (≈ 224 µM)
MIC90 (MRSA USA 300): 62.5 µg/mL (≈ 112 µM)
MIC90 (B. cereus): < 62.5 µg/mL
Motility (M) Mean score [1]: 3.36
Phenotype (P) Mean score [1]: 3.40
MIC90 (S. aureus ATCC 29213): 31.2 µg/mL (≈ 55.9 µM)
MIC90 [2]: > 125 µg/mL
Selectivity Index Schistosomula (S. mansoni schistosomula): 8
EC50 (S. mansoni schistosomula; average of phenotype and motility, read-out: EC50 Schistosomula average): 1940 nM
EC50 (S. mansoni schistosomula; [18]): 1330 nM
EC50 (S. mansoni schistosomula; [19]): 2540 nM
MIC90 (MRSA EM RSA): 62.5 µg/mL (≈ 112 µM)
MIC90 (E. coli ATCC 25922): > 125 µg/mL
MIC90 [3]: > 125 µg/mL
MIC [4]: 8 µg/mL (≈ 14.3 µM)
MIC [5]: 64 µg/mL (≈ 114 µM)
MIC [6]: 8 µg/mL (≈ 14.3 µM)
MIC [7]: 0.25 µg/mL (≈ 0.447 µM)
MIC [8]: 8 µg/mL (≈ 14.3 µM)
MIC [9]: 8 µg/mL (≈ 14.3 µM)
MIC [10]: 4 µg/mL (≈ 7.15 µM)
MIC [11]: 1 µg/mL (≈ 1.79 µM)
MIC [12]: 8 µg/mL (≈ 14.3 µM)
MIC [13]: 2 µg/mL (≈ 3.58 µM)
MIC [14]: 64 µg/mL (≈ 114 µM)
MIC [15]: 8 µg/mL (≈ 14.3 µM)
MIC [16]: 8 µg/mL (≈ 14.3 µM)
MIC [17]: 64 µg/mL (≈ 114 µM)

O=[N+]([O-])c1ccc2nc(Nc3cc(F)cc(C(F)(F)F)c3)c(Nc3cc(F)cc(C(F)(F)F)c3)nc2c1 [Compound 8, N^2, N^3-bis(3-fluoro-5-(trifluoromethyl)phenyl)-6-nitroquinoxaline-2,3-diamine]
global H3K4 methylation compared to the negative control (DMSO) (H3K4 methylation): significant % decrease
Selectivity Index Adult (S. mansoni adult worms; HepG2 CC50 over adult worm EC50): 1549
EC50 (S. mansoni adult worms; Schistosoma mansoni, adult worms): 6.5 nM
Selectivity Index Schistosomula (S. mansoni schistosomula): 25
EC50 (S. mansoni schistosomula; [18]): 430 nM
EC50 (S. mansoni schistosomula; [19]): 370 nM

Cc1cccc(Nc2nc3ccc([N+](=O)[O-])cc3nc2Nc2cccc(C)c2)c1 [Compound 21]
CC50 at 24 h (MTT assay on HepG2 cells): 15600 nM
Selectivity Index Schistosomula (S. mansoni schistosomula): 11
EC50 (S. mansoni schistosomula; [18]): 1230 nM
EC50 (S. mansoni schistosomula; [19]): 1620 nM
